From patent US8445526B2, “Compositions and methods for treatment of glaucoma” (Glaucoma & Nasal Therapies LLC, priority 2011, dated 2013)
≈ marks a conversion by molar mass, not a printed value. Like-named read-outs stand apart in the source and are kept apart here.

What was measured:
[1] = tested on: α-2 over α-1 adrenergic receptors; conditions: binding affinity for α-2 over α-1 receptors; cited from earlier work
[2] = tested on: normotensive (<21 mm Hg) human subject; conditions: after instillation
Procedure: Various formulations of α-2 agonists were unilaterally administered to a normotensive (<21 mm Hg) human subject. The subject first underwent baseline IOP testing using standard applanation tonometry via slit lamp. After fluorescein instillation, the drug was instilled as a morning dose at between about 7:00 and 9:00 AM. […] Follow up IOP checks were designed to be about 4 hours after initial instillation, where instillation consisted of 1-2 drops.

[3] = tested on: normotensive rabbits; conditions: cited from earlier work; for contralateral (nontreated eye) IOP reduction compared to the treated eye / time of peak effect: normotensive rabbits; for time of peak effect: dexmedetomidine 0.05%, brimonidine tartrate 0.10%
[4] = tested on: ocular hypertensive and normotensive eyes of patients; conditions: cited from earlier work; for equivalent reduction in normotensive human eyes: prior art formulations
[5] = tested on: one eye of an individual; experiment: Example 3: cosmetic appearance (redness, whiteness) of the treated eye; format: in vivo, human; conditions: for Eye White Shade: baseline 1; for Redness: baseline 1.5
[6] = tested on: normotensive eyes; conditions: under specific and very limited formulation conditions
[7] = conventional brimonidine formulations

## Nc1cc(Cl)c(N=C2NCCN2)c(Cl)c1 [Apraclondine]
[1]
  α2:α1: 150

## Brc1c(NC2=NCCN2)ccc2nccnc12 [Brimonidine]
[2]
  IOP reduction peaking at (time): 2 h
[3]
  contralateral (nontreated eye) IOP reduction compared to the treated eye: about 10%
  time of peak effect: about 3 hours
[4]; conjunctival hyperemia, blepharitis, allergy, edema, follicles, foreign body sensation, burning, blurring
  substantial local side effects: 10-25 % of users
[4]; conventional brimonidine formulations, normotensive eyes
  time of peak IOP reduction effect after instillation: 2 to 3 h
[4]; [7]
  duration of IOP reduction effect of a single dose: ≤ 12 h
  peak IOP reduction effect in normotensive eyes: 15-18%
[4]; human, in vivo
  peak IOP reduction in normotensive eyes (less than 21 mm Hg): 6-18%
  peak IOP reduction in ocular hypertensive eyes: 20-25%
  peak effect within (time of instillation): 2 to 3 h
  topical lid and conjunctival allergy, dryness, and redness: over 10 % of patients
  users complaining of dryness: more than 10%
[4]; long term use
  rebound redness: 20-25%
[4]
  equivalent reduction in normotensive human eyes: about 20%
[4]; typically
  duration of effect: less than 12 hours

## Clc1cccc(Cl)c1N=C1NCCN1 [Clonidine]
[1]
  α2:α1: 200

## Cc1cccc([C@H](C)c2cnc[nH]2)c1C [Dexmedetomidine]
[5]; after the application
  start of decrease in hyperemia and increase in whiteness: about 2 minutes
  time to maximum whiteness: about 10 minutes
[5]; dexmedetomidine 0.010%, 4 (whitest)-1 off-white-gray/yellow
  Eye White Shade: 1
[5]; dexmedetomidine 0.010%, scale 0 (none)-4 (reddest + chemosis)
  Redness: 1.25
[5]; dexmedetomidine 0.022%, scale 0-4
  Redness: 1.25
[5]; dexmedetomidine 0.022%, scale 4-1
  Eye White Shade: 1.25
[5]; dexmedetomidine 0.050%, scale 0-4
  Redness: 1.0
[5]; dexmedetomidine 0.050%, scale 4-1
  Eye White Shade: 1.5
[5]; dexmedetomidine 0.10%, scale 0-4
  Redness: 0.75
[5]; dexmedetomidine 0.10%, scale 4-1
  Eye White Shade: 1.75
[5]; dexmedetomidine […], scale 0-4
  Redness: 1.0
[5]; dexmedetomidine […], scale 4-1
  Eye White Shade: 1.5
[5]; in vivo
  total duration of the effect (reduced hyperemia, increase in whiteness): 3 to 5 h
[1]
  α2:α1: 1620
[3]; 0.02% in normotensive rabbits, U.S. Pat. No. 5,304,569
  pressure reduction in the nontreated (contralateral) eye relative to the treated eye: 100%
[3]; 0.05% in normotensive rabbits, Vartiainen et al
  pressure reduction: 4.75 mm Hg
[3]
  contralateral (nontreated eye) IOP reduction compared to the treated eye: about 100%
  time of peak effect: about 2 hours
pH 6
  max soluble concentration: 0.195%
  solubility: 1953 µg/mL (≈ 9750 µM)
pH 6.4
  max soluble concentration: 0.060%
pH 7
  max soluble concentration: 0.023%
  solubility: 224 µg/mL (≈ 1120 µM)
pH 7.4
  max soluble concentration: 0.015%
pH 8
  max soluble concentration: 0.013%
  solubility: 134 µg/mL (≈ 669 µM)
[4]
  equivalent reduction in normotensive human eyes: about 20%
[6]
  more effective than brimonidine by (IOP reduction vs. time): about 200%

## CC(Oc1c(Cl)cccc1Cl)C1=NCCN1 (stereo not shown) [Lofexidine]
[1]
  α2:α1: <300

## Cc1cc(C(C)(C)C)c(O)c(C)c1CC1=NCCN1 [Oxymetazoline]
[1]
  α2:α1: 50

## Cc1cccc(C)c1N=C1NCCCS1 [Xylazine]
[1]
  α2:α1: 160

## brimonidine tartrate
[3]; 0.10% solution in normotensive rabbits
  peak IOP reduction: about 6.2 mm Hg
